In series [1] the test system is L6. The series can be described thus: Inhibition of mitochondrial respiratory complex 1 in differentiated Sprague-Dawley rat L6 myotube cells assessed as mitochondrial membrane potential at 10 uM after 40 to 60 mins by JC-1 staining based fluorescence assay (reference value: 100 +/- 1.6%). Type of series: cell-based. The arrangement: scale not given: the % may be the effect or the level left.

Series [2] deals with L6. The series can be described thus: Upregulation of AMPKalpha phosphorylation at Thr172 residues in Sprague-Dawley rat L6 myotube cells at 10 uM after 1 hr by Western blot analysis. Format: cell-based.
For series [3], the system named is L6. The series can be described thus: Activation of AMPK in Sprague-Dawley rat L6 myotube cells assessed as increase in acetyl-CoA carboxylase phosphorylation at Ser79 residues at 10 uM after 1 hr by Western blot analysis. Type of series: cell-based. For orientation: A western blot detects proteins with antibodies after separation by electrophoresis.
Series [4] concerns L6. The series can be described thus: Activation of AMPK in differentiated Sprague-Dawley rat L6 myotube cells assessed as glucose consumption at 10 uM after 12 hrs by colorimetric assay (reference value: 100 +/- 1.8%). Format: cell-based.
Series [5] has as its system L6. The series is described as follows: Inhibition of mitochondrial respiratory complex 1 in differentiated Sprague-Dawley rat L6 myotube cells assessed as mitochondrial membrane potential at 20 uM after 40 to 60 mins by JC-1 staining based fluorescence assay (reference value: 100 +/- 1.6%). Format: cell-based. Also on record: scale not given: the % may be the effect or the level left.

For series [6], the species on record is Rattus norvegicus. The series is described as follows: Activation of AMPK in Sprague-Dawley rat primary hepatocytes assessed as inhibition of gluconeogenesis by measuring glucose production at 5 uM after 6 hrs by colorimetric assay (reference value: 100 +/- 3.5%). Also on record: scale not given: the % may be the effect or the level left.
Series [7] has as its system L6. The series can be described thus: Inhibition of mitochondrial respiratory complex 1 in differentiated Sprague-Dawley rat L6 myotube cells assessed as mitochondrial membrane potential at 5 uM after 40 to 60 mins by JC-1 staining based fluorescence assay (reference value: 100 +/- 1.6%). Type of series: cell-based. The arrangement: scale not given: the % may be the effect or the level left.

Series [8] is described as follows: Cytotoxicity against Sprague-Dawley rat L6 cells assessed as cell viability at 10 uM after 12 hrs by SRB assay (reference value: 100 +/- 1.8%). Format: cell-based. The following applies: read-out: Activity. Background: Sulforhodamine B stains cellular protein and so reports cell mass.
A short description of series [9]: Cytotoxicity against Sprague-Dawley rat L6 cells assessed as cell viability at 20 uM after 12 hrs by SRB assay (reference value: 100 +/- 1.8%). Type of series: cell-based. The note with it: read-out: Activity.
Series [10] in a line: Cytotoxicity against Sprague-Dawley rat L6 cells assessed as cell viability at 5 uM after 12 hrs by SRB assay (reference value: 100 +/- 1.8%). Type of series: cell-based. The following applies: read-out: Activity.
The species entered for series [11] is Rattus norvegicus. The series can be described thus: Activation of AMPK in Sprague-Dawley rat primary hepatocytes assessed as inhibition of gluconeogenesis by measuring glucose production at 20 uM after 6 hrs by colorimetric assay (reference value: 100 +/- 3.5%). Also on record: scale not given: the % may be the effect or the level left.
For series [12], the system named is L6. The series is described as follows: Activation of AMPK in differentiated Sprague-Dawley rat L6 myotube cells assessed as glucose consumption at 5 uM after 12 hrs by colorimetric assay (reference value: 100 +/- 1.8%). Type of series: cell-based.
The species entered for series [13] is Rattus norvegicus. The series can be described thus: Activation of AMPK in Sprague-Dawley rat primary hepatocytes assessed as inhibition of gluconeogenesis by measuring glucose production after 6 hrs by colorimetric assay.
Series [14] has as its system L6. The series is described as follows: Activation of AMPK in differentiated Sprague-Dawley rat L6 myotube cells assessed as increase in glucose consumption at 10 uM after 12 hrs by colorimetric assay relative to control. Format: cell-based.
Series [15] deals with L6. The series is described as follows: Activation of AMPK in differentiated Sprague-Dawley rat L6 myotube cells assessed as glucose consumption at 20 uM after 12 hrs by colorimetric assay (reference value: 100 +/- 1.8%). Format: cell-based.
The species entered for series [16] is Rattus norvegicus. The series can be described thus: Activation of AMPK in Sprague-Dawley rat primary hepatocytes assessed as inhibition of gluconeogenesis by measuring glucose production at 10 uM after 6 hrs by colorimetric assay (reference value: 100 +/- 3.5%). Also on record: scale not given: the % may be the effect or the level left.
The test system of series [17] is L6. The series can be described thus: Upregulation of AMPKalpha phosphorylation at Thr172 residues in Sprague-Dawley rat L6 myotube cells at 5 to 20 uM after 1 hr by Western blot analysis. Format: cell-based.
The test system of series [18] is L6. The series can be described thus: Activation of AMPK in Sprague-Dawley rat L6 myotube cells assessed as increase in acetyl-CoA carboxylase phosphorylation at Ser79 residues at 5 to 20 uM after 1 hr by Western blot analysis. Type of series: cell-based.
The subject of series [19] is L6. The series can be described thus: Activation of AMPK in differentiated Sprague-Dawley rat L6 myotube cells assessed as increase in glucose consumption at 5 to 20 uM after 12 hrs by colorimetric assay relative to berberine. Format: cell-based.
The test system of series [20] is L6. The series is described as follows: Activation of AMPK in differentiated Sprague-Dawley rat L6 myotube cells assessed as increase in glucose consumption at 5 to 20 uM after 12 hrs by colorimetric assay relative to control. Type of series: cell-based.

The results in this text go back to ChEMBL document CHEMBL4219147, “Design, synthesis, and structure-activity relationships of novel 4,7,12,12a-tetrahydro-5H-thieno[3',2':3,4]pyrido[1,2-b]isoquinoline and 5,8,12,12a-tetrahydro-6H-thieno[2',3':4,5]pyrido[2,1-a]isoquinoline derivatives as cellular activators of adenosine 5'-monophosphate-activated protein kinase …” (Bioorg Med Chem, 2018).

Activity calls are given as the source filed them. The calls are words filed in the database; no cut-off is given here.

With `COc1ccc2cc3[n+](cc2c1OC)CCc1cc2c(cc1-3)OCO2` [BERBERINE CHLORIDE], the Activity turned out to be 85.8% with L6 [1]; 228% with L6 [4]; 84.5% in the series with L6 [5]; 57.6% in the series filed under Rattus norvegicus [6]; 91.5% with L6 [7]. In addition, the outcome in the series on L6 [2] and with L6 [3] was Active. In series [8], the viability at 12 h, 10 µM worked out at 100%.

As to `c1ccc(Cc2cc3c(s2)CC2c4cc5c(cc4CCN2C3)OCO5)cc1` (configuration not stated), the Activity with L6 [1] was found to be 90.7%; in the series listed under Rattus norvegicus [11], 40.9%; in the series with L6 [4], 242%; in the series with L6 [12] it was 194%; in the series on L6 [5], 79.7%; in the series listed under Rattus norvegicus [6], 59.5%. Also, the Activity is 98.2% in the series with L6 [7], 264% with L6 [15] and 48.2% in the series filed under Rattus norvegicus [16]. The viability at 12 h, 20 µM in series [9] is 101%. For the same molecule, in series [10], the viability at 12 h, 5 µM is 102%. Also, the inhibition result in the series filed under Rattus norvegicus [13] is “Dose-dependent effect”. Further, the fold change (FC) in the series with L6 [14] is 2.4. For the same molecule, the viability at 12 h, 10 µM in [8] came to 101%. The result in the series on L6 [17] and in the series on L6 [18] was Active.

For the molecule `COc1ccc(OC)c2c1CC1c3cc(Cc4ccc(C)cc4)sc3CCN1C2` (configuration not stated), the Activity worked out at 57.7% in the series with L6 [1]; 55.7% in the series filed under Rattus norvegicus [11]; 230% in the series with L6 [4]; 222% in the series with L6 [12]; 49% in the series with L6 [5]; 73.3% in the series listed under Rattus norvegicus [6]. In addition, the values for the Activity in the series on L6 [7], with L6 [15] and in the series listed under Rattus norvegicus [16] were 67.7%, 238% and 65%, respectively. For the same molecule, the viability at 12 h, 20 µM in series [9] was found to be 107%. In addition, the fold change (FC) was 2.3 in the series on L6 [19] and 2.3 to 2.9 in the series with L6 [20]. In addition, in [10], the viability at 12 h, 5 µM was 100%. Further, the inhibition result in the series listed under Rattus norvegicus [13] is “Dose-dependent effect”. Further, the viability at 12 h, 10 µM in series [8] was determined as 106%. The result in the series with L6 [17] and in the series with L6 [18] was Active.

Consider `COc1cccc(Cc2cc3c(s2)CCN2Cc4c(OC)ccc(OC)c4CC32)c1` (configuration not stated), for which the Activity with L6 [1] is 72.8%; in the series filed under Rattus norvegicus [11] it was 38.1%; in the series with L6 [4] it was 242%; with L6 [12] it was 245%; in the series with L6 [5], 59.2%; in the series filed under Rattus norvegicus [6] it was 73.2%. Also, the values for the Activity in the series on L6 [7], in the series on L6 [15] and in the series listed under Rattus norvegicus [16] were 76.3%, 243% and 58.8%, respectively. Also, the viability at 12 h, 20 µM in series [9] came out at 100%. In addition, the fold change (FC) is 2.3 in the series on L6 [19] and 2.1 to 2.7 with L6 [20]. Also, the viability at 12 h, 5 µM in series [10] worked out at 100%. The inhibition entry in the series listed under Rattus norvegicus [13] was “Dose-dependent effect”. In addition, in [8], the viability at 12 h, 10 µM stood at 94.9%. In addition, the outcome in the series with L6 [17] and in the series on L6 [18] was Active.

As to `COc1ccc(OC)c2c1CC1c3cc(Cc4ccc(F)cc4)sc3CCN1C2` (configuration not stated), the Activity amounted to 76% in the series with L6 [1]; 60.6% in the series listed under Rattus norvegicus [11]; 238% with L6 [4]; 216% in the series on L6 [12]; 62.9% in the series with L6 [5]; 96.7% in the series filed under Rattus norvegicus [6]. The values for the Activity with L6 [7], in the series on L6 [15] and in the series filed under Rattus norvegicus [16] were 82.8%, 235% and 83.4%, respectively. The viability at 12 h, 20 µM in [9] came out at 100%. Also, the results for the fold change (FC) in the series on L6 [19] and in the series on L6 [20] were 2.3 and 2.3 to 2.9, respectively. Besides, in series [10], the viability at 12 h, 5 µM worked out at 98.8%. Moreover, in the series listed under Rattus norvegicus [13], the inhibition entry was “Dose-dependent effect”. In [8], the viability at 12 h, 10 µM stood at 98.2%. Moreover, the result in the series with L6 [17] and with L6 [18] was Active.

Turning to `CCCCc1cc2c(s1)CC1c3cc4c(cc3CCN1C2)OCO4` (configuration not stated), the Activity in the series with L6 [1] turned out to be 68.9%; in the series filed under Rattus norvegicus [11], 53.7%; with L6 [4], 287%; with L6 [12] it was 265%; in the series on L6 [5], 57.5%; in the series filed under Rattus norvegicus [6], 58.3%. Besides, the Activity with L6 [7] stood at 75.1%; with L6 [15] it was 285%; in the series listed under Rattus norvegicus [16], 55.6%. Further, the viability at 12 h, 20 µM in series [9] is 97.7%. In [10], the viability at 12 h, 5 µM came out at 102%. In the series filed under Rattus norvegicus [13], the inhibition result was “Dose-dependent effect”. Moreover, in the series with L6 [14], the fold change (FC) was determined as 2.9. Also, in [8], the viability at 12 h, 10 µM was found to be 98.8%. Moreover, the result in the series with L6 [17] and in the series with L6 [18] was Active.

In the case of `C=CCOc1ccc(Cc2cc3c(s2)CCN2Cc4c(OC)ccc(OC)c4CC32)cc1` (configuration not stated), the Activity with L6 [1] came to 72.8%; in the series filed under Rattus norvegicus [11], 49%; with L6 [4] it was 249%; in the series with L6 [12], 213%; in the series on L6 [5] it was 54%; in the series filed under Rattus norvegicus [6], 58.7%. Moreover, the Activity with L6 [7] worked out at 83.7%; in the series with L6 [15] it was 265%; in the series listed under Rattus norvegicus [16] it was 49.6%. Further, the viability at 12 h, 20 µM in series [9] was found to be 98.7%. The values for the fold change (FC) with L6 [19] and with L6 [20] were 2.3 and 2.1 to 2.7, respectively. The viability at 12 h, 5 µM in [10] came out at 99.4%. Moreover, the inhibition result in the series filed under Rattus norvegicus [13] was “Dose-dependent effect”. Besides, the viability at 12 h, 10 µM in series [8] is 102%. For the same molecule, the outcome with L6 [17] and in the series with L6 [18] was Active.

Turning to `CCc1cc2c(s1)CC1c3cc4c(cc3CCN1C2)OCO4` (configuration not stated), the viability at 12 h, 20 µM in [9] is 102%. Further, in series [10], the viability at 12 h, 5 µM was 99.5%. Further, the Activity came out at 219% in the series with L6 [4], 212% in the series on L6 [12] and 227% with L6 [15]. In addition, the fold change (FC) with L6 [14] came out at 2.2. Besides, the viability at 12 h, 10 µM in series [8] was 102%.

Consider `c1cc2c(s1)CC1c3cc4c(cc3CCN1C2)OCO4` (configuration not stated), for which the viability at 12 h, 20 µM in series [9] amounted to 102%. Also, in [10], the viability at 12 h, 5 µM is 98.6%. Also, the Activity came to 134% with L6 [4], 132% with L6 [12] and 133% in the series on L6 [15]. Besides, the fold change (FC) in the series with L6 [14] was 1.3. In addition, the viability at 12 h, 10 µM in series [8] was determined as 99.7%.
